Experimental data: US10131652B2, “Pyrimidinyloxy benzene derivatives as herbicides” (E. I. DU PONT DE NEMOURS AND COMPANY, priority 2014, dated 2018)

Columns and labels:
Format in all cases: in vivo
[1] = tested on: galium (catchweed bedstraw, Galium aparine); assay: Test B postemergence plant response
Outline: (§1)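 Pots, loam soil + sand; postemergence treatment at 1–2 leaf stage, 2–10 cm; greenhouse ~10 d; visual injury score 0 (none) to 100 (complete control) relative to untreated controls.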

[2] = tested on: blackgrass (Alopecurus myosuroides); assay: Test B postemergence plant response
Outline: as §1

[3] = tested on: barnyardgrass (Echinochloa crus-galli); assay: Test C flooded paddy test plant response; conditions: Flood, 250 g ai/ha; scale of 0 to 100 where 0 is no effect and 100 is complete control; 13 to 15 days
Outline: (§2)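 Plants grown to 2-leaf stage, flooded 3 cm above soil; compounds applied directly into paddy water, depth kept throughout. Visual rating versus controls after 13 to 15 days in greenhouse, 0 (no effect) to 100 (complete control).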

[4] = tested on: rice (Oryza sativa); assay: Test C flooded paddy test plant response; conditions: Flood, 250 g ai/ha; scale of 0 to 100 where 0 is no effect and 100 is complete control; 13 to 15 days
Outline: as §2

[5] = tested on: small-flower umbrella sedge (Cyperus difformis); assay: Test C flooded paddy test plant response; conditions: Flood, 250 g ai/ha; scale of 0 to 100 where 0 is no effect and 100 is complete control; 13 to 15 days
Outline: as §2

[6] = tested on: ducksalad (Heteranthera limosa); assay: Test C flooded paddy test plant response; conditions: Flood, 250 g ai/ha; scale of 0 to 100 where 0 is no effect and 100 is complete control; 13 to 15 days
Outline: as §2

[7] = tested on: giant foxtail (Setaria faberii); assay: Test B pre-/postemergence plant response
Outline: (§3)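 Scoring used a 0–100 scale (100 = complete control) by visual comparison with untreated plants after approximately 10 days in the greenhouse. Compounds, in surfactant-containing non-phytotoxic solvent, were sprayed onto soil at planting or onto 2–10 cm seedlings.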

[8] = tested on: pigweed (Amaranthus retroflexus); assay: Test B pre-/postemergence plant response
Outline: as §3

[9] = tested on: Italian ryegrass (Lolium multiflorum); assay: Test B pre-/postemergence plant response
Outline: as §3

[10] = tested on: wheat (Triticum aestivum); assay: Test B pre-/postemergence plant response
Outline: as §3

[11] = tested on: barnyardgrass (Echinochloa crus-galli); assay: Test B pre-/postemergence plant response
Outline: as §3

[12] = tested on: corn (Zea mays); assay: Test B pre-/postemergence plant response
Outline: as §3

[13] = tested on: ragweed (common ragweed, Ambrosia elatior); assay: Test B pre-/postemergence plant response
Outline: as §3

[14] = tested on: kochia (Kochia scoparia); assay: Test B pre-/postemergence plant response
Outline: as §3

[15] = 125 g ai/ha, postemergence, 0 to 100 scale, 0 no effect, 100 complete control
[16] = Postemergence, 31 g ai/ha, 0 to 100 scale (0 no effect, 100 complete control)
[17] = 31 g ai/ha, Preemergence, 0 to 100 scale where 0 is no effect and 100 is complete control
[18] = Preemergence, 125 g ai/ha, 0 to 100 scale (0 no effect, 100 complete control)

Compound: Fc1cnc(Oc2ccccc2-c2cc(C(F)F)no2)nc1 [Compound 210]
- Plant response rating, Galium [1, 15]: 90
- Plant response rating, Galium [1, 16]: 50
- Plant response rating, Blackgrass [2, 15]: 30
- Plant response rating, Blackgrass [2, 16]: 10
- Barnyardgrass plant response rating [3]: 0
- Rice plant response rating [4]: 0
- Sedge, Umbrella plant response rating [5]: 40
- Ducksalad plant response rating [6]: 85
- Plant response rating, Foxtail, Giant [7, 17]: 40
- Plant response rating, Foxtail, Giant [7, 15]: 40
- Plant response rating, Foxtail, Giant [7, 16]: 0
- Foxtail, Giant plant response rating [7, 18]: 90
- Plant response rating, Pigweed [8, 17]: 100
- Plant response rating, Pigweed [8, 15]: 80
- Plant response rating, Pigweed [8, 16]: 50
- Pigweed plant response rating [8, 18]: 100
- Plant response rating, Ryegrass, Italian [9, 17]: 0
- Plant response rating, Ryegrass, Italian [9, 15]: 0
- Plant response rating, Ryegrass, Italian [9, 16]: 0
- Ryegrass, Italian plant response rating [9, 18]: 10
- Plant response rating, Wheat [10, 15]: 20
- Plant response rating, Wheat [10, 16]: 0
- Plant response rating, Barnyardgrass [11, 17]: 10
- Plant response rating, Barnyardgrass [11, 15]: 0
- Plant response rating, Barnyardgrass [11, 16]: 0
- Barnyardgrass plant response rating [11, 18]: 80
- Plant response rating, Corn [12, 15]: 10
- Plant response rating, Corn [12, 16]: 0
- Plant response rating, Ragweed [13, 17]: 0
- Plant response rating, Ragweed [13, 15]: 30
- Plant response rating, Ragweed [13, 16]: 10
- Ragweed plant response rating [13, 18]: 20
- Plant response rating, Kochia [14, 17]: 50
- Plant response rating, Kochia [14, 15]: 80
- Plant response rating, Kochia [14, 16]: 50
- Kochia plant response rating [14, 18]: 90

Compound: Cc1cnc(Oc2ccccc2-c2cc(C(F)F)no2)nc1 [Compound 211]
- Plant response rating, Galium [1, 15]: 100
- Plant response rating, Galium [1, 16]: 60
- Plant response rating, Blackgrass [2, 15]: 50
- Plant response rating, Blackgrass [2, 16]: 10
- Barnyardgrass plant response rating [3]: 0
- Rice plant response rating [4]: 0
- Sedge, Umbrella plant response rating [5]: 20
- Ducksalad plant response rating [6]: 70
- Plant response rating, Foxtail, Giant [7, 17]: 10
- Plant response rating, Foxtail, Giant [7, 15]: 50
- Plant response rating, Foxtail, Giant [7, 16]: 10
- Foxtail, Giant plant response rating [7, 18]: 100
- Plant response rating, Pigweed [8, 17]: 100
- Plant response rating, Pigweed [8, 15]: 50
- Plant response rating, Pigweed [8, 16]: 20
- Pigweed plant response rating [8, 18]: 100
- Plant response rating, Ryegrass, Italian [9, 17]: 0
- Plant response rating, Ryegrass, Italian [9, 15]: 0
- Plant response rating, Ryegrass, Italian [9, 16]: 0
- Ryegrass, Italian plant response rating [9, 18]: 0
- Plant response rating, Wheat [10, 15]: 0
- Plant response rating, Wheat [10, 16]: 0
- Plant response rating, Barnyardgrass [11, 17]: 10
- Plant response rating, Barnyardgrass [11, 15]: 10
- Plant response rating, Barnyardgrass [11, 16]: 0
- Barnyardgrass plant response rating [11, 18]: 50
- Plant response rating, Corn [12, 15]: 10
- Plant response rating, Corn [12, 16]: 0
- Plant response rating, Ragweed [13, 17]: 0
- Plant response rating, Ragweed [13, 15]: 30
- Plant response rating, Ragweed [13, 16]: 0
- Ragweed plant response rating [13, 18]: 30
- Plant response rating, Kochia [14, 17]: 20
- Plant response rating, Kochia [14, 15]: 90
- Plant response rating, Kochia [14, 16]: 40
- Kochia plant response rating [14, 18]: 80

Compound: COc1cnc(Oc2ccccc2-c2cc(C(F)F)no2)nc1 [Compound 213]
- Plant response rating, Galium [1, 15]: 80
- Plant response rating, Galium [1, 16]: 50
- Plant response rating, Blackgrass [2, 15]: 10
- Plant response rating, Blackgrass [2, 16]: 0
- Barnyardgrass plant response rating [3]: 0
- Rice plant response rating [4]: 0
- Sedge, Umbrella plant response rating [5]: 0
- Ducksalad plant response rating [6]: 75
- Plant response rating, Foxtail, Giant [7, 17]: 0
- Plant response rating, Foxtail, Giant [7, 15]: 20
- Plant response rating, Foxtail, Giant [7, 16]: 0
- Foxtail, Giant plant response rating [7, 18]: 80
- Plant response rating, Pigweed [8, 17]: 80
- Plant response rating, Pigweed [8, 15]: 80
- Plant response rating, Pigweed [8, 16]: 30
- Pigweed plant response rating [8, 18]: 100
- Plant response rating, Ryegrass, Italian [9, 17]: 0
- Plant response rating, Ryegrass, Italian [9, 15]: 0
- Plant response rating, Ryegrass, Italian [9, 16]: 0
- Ryegrass, Italian plant response rating [9, 18]: 0
- Plant response rating, Wheat [10, 15]: 10
- Plant response rating, Wheat [10, 16]: 0
- Plant response rating, Barnyardgrass [11, 17]: 0
- Plant response rating, Barnyardgrass [11, 15]: 0
- Plant response rating, Barnyardgrass [11, 16]: 0
- Barnyardgrass plant response rating [11, 18]: 40
- Plant response rating, Corn [12, 15]: 10
- Plant response rating, Corn [12, 16]: 0
- Plant response rating, Ragweed [13, 17]: 0
- Plant response rating, Ragweed [13, 15]: 60
- Plant response rating, Ragweed [13, 16]: 10
- Ragweed plant response rating [13, 18]: 0
- Plant response rating, Kochia [14, 17]: 10
- Plant response rating, Kochia [14, 15]: 100
- Plant response rating, Kochia [14, 16]: 60
- Kochia plant response rating [14, 18]: 50
